Assay results taken from patent publication US10106544B2, “1,2-dihydro-3H-pyrrolo[1,2-C]imidazol-3-one derivatives and their use as antibacterial agents” (priority 2014, dated 2018).
Values after ≈ are worked out from the molar mass of the structure shown. Where a name gives a salt, the structure may show the parent alone. Read-outs that look alike come from different tables or passages of the source.

Key:
Assay in all cases: Bacterial growth minimal inhibitory concentration (microdilution, cation-adjusted Mueller-Hinton Broth)
Type in all cases: cell-based
[1] = test system: K. pneumoniae A-651; settings: for MIC: Klebsiella pneumoniae
Summary of the method: (§1)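 Broth microdilution in cation-adjusted Mueller-Hinton Broth per CLSI M7-A7, MIC in mg/L. K. pneumoniae A-651 is multiply resistant, including to quinolones. E. coli ATCC25922 and P. aeruginosa ATCC27853 are quinolone-sensitive.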

[2] = test system: P. aeruginosa ATCC27853; settings: for MIC: Pseudomonas aeruginosa
Summary of the method: as §1

[3] = test system: E. coli ATCC25922; settings: for MIC: Escherichia coli
Summary of the method: as §1

[4] = A651, multiply-resistant strain (in particular quinolone-resistant), read-out: MIC for K. Pneumoniae A-651
[5] = ATCC27853, quinolone-sensitive strain, read-out: MIC for P. aeruginosa ATCC27853
[6] = ATCC25922, quinolone-sensitive strain, read-out: MIC for E. coli ATCC25922

Structure (SMILES)	MIC [1, 4] [µg/mL]	MIC [2, 5] [µg/mL]	MIC [3, 6] [µg/mL]	further results
C[C@@](CCN1Cc2cc(C#CC#C[C@@H]3C[C@@H](O)[C@@H](O)C3)cn2C1=O)(C(=O)NO)S(C)(=O)=O [Example 33, (R)-4-(6-(((1S,3R,4S)-3,4-dihydroxycyclopentyl)buta-1,3-diyn-1-yl)-3-oxo-1H-pyrrolo[1,2-c]imidazol-2(3H)-yl)-N-hydroxy-2-methyl-2-(methylsulfonyl)butanamide]				MIC for K. Pneumoniae A-651 ([1]; multiply-resistant strain (in particular quinolone-resistant)): 0.5 µg/mL; MIC for P. aeruginosa ATCC27853 ([2]; quinolone-sensitive strain): 1 µg/mL; MIC for E. coli ATCC25922 ([3]; quinolone-sensitive strain): 0.5 µg/mL
C[C@@](CCN1Cc2cc(C#Cc3ccc(C4(COC(N)=O)CC4)cc3)cn2C1=O)(C(=O)NO)S(C)(=O)=O [Example 34, (R)-(1-(4-((2-(4-(hydroxyamino)-3-methyl-3-(methylsulfonyl)-4-oxobutyl)-3-oxo-2,3-dihydro-1H-pyrrolo[1,2-c]imidazol-6-yl)ethynyl)phenyl)cyclopropyl)methyl carbamate]	1 (≈ 1.89 µM)	16 (≈ 30.3 µM)	0.125 (≈ 0.236 µM)	
C[C@@](CCN1Cc2cc(C#CC#CC3(COC(N)=O)CC3)cn2C1=O)(C(=O)NO)S(C)(=O)=O [Example 35, (R)-(1-((2-(4-(hydroxyamino)-3-methyl-3-(methylsulfonyl)-4-oxobutyl)-3-oxo-2,3-dihydro-1H-pyrrolo[1,2-c]imidazol-6-yl)buta-1,3-diyn-1-yl)cyclopropyl)methyl carbamate]	0.5 (≈ 1.05 µM)	2 (≈ 4.2 µM)	0.25 (≈ 0.525 µM)	
C[C@@]1(C#CC#Cc2cc3n(c2)C(=O)N(CC[C@](C)(C(=O)NO)S(C)(=O)=O)C3)C[C@H]1CO [Example 36, (R)-N-hydroxy-4-(6-(((1R,2R)-2-(hydroxymethyl)-1-methylcyclopropyl)buta-1,3-diyn-1-yl)-3-oxo-1H-pyrrolo[1,2-c]imidazol-2(3H)-yl)-2-methyl-2-(methylsulfonyl)butanamide]	0.25 (≈ 0.559 µM)	0.5 (≈ 1.12 µM)	0.125 (≈ 0.279 µM)	
C[C@@](CCN1Cc2cc(C#CC#CC3(N)COC3)cn2C1=O)(C(=O)NO)S(C)(=O)=O [Example 39, (R)-4-(6-((3-aminooxetan-3-yl)buta-1,3-diyn-1-yl)-3-oxo-1H-pyrrolo[1,2-c]imidazol-2(3H)-yl)-N-hydroxy-2-methyl-2-(methylsulfonyl)butanamide hydrochloride]				MIC ([1]; A651, read-out: MIC for K. Pneumoniae A-651): 4 µg/mL; MIC ([2]; ATCC27853, read-out: MIC for P. aeruginosa ATCC27853): 4 µg/mL; MIC ([3]; ATCC25922, read-out: MIC for E. coli ATCC25922): 2 µg/mL
C[C@@](CCN1Cc2cc(C#Cc3ccc(C4(CO)CCC4)cc3)cn2C1=O)(C(=O)NO)S(C)(=O)=O [Example 40, (R)-N-hydroxy-4-(6-((4-(1-(hydroxymethyl)cyclobutyl)phenyl)ethynyl)-3-oxo-1H-pyrrolo[1,2-c]imidazol-2(3H)-yl)-2-methyl-2-(methylsulfonyl)butanamide]	0.25 (≈ 0.5 µM)	1 (≈ 2 µM)	≤ 0.063	
C[C@@](CCN1Cc2cc(-c3ccc(OCCO)cc3F)cn2C1=O)(C(=O)NO)S(C)(=O)=O [Example 41, (R)-4-(6-(2-fluoro-4-(2-hydroxyethoxy)phenyl)-3-oxo-1H-pyrrolo[1,2-c]imidazol-2(3H)-yl)-N-hydroxy-2-methyl-2-(methylsulfonyl)butanamide]	2 (≈ 4.26 µM)	4 (≈ 8.52 µM)	1 (≈ 2.13 µM)	
C[C@@](CCN1Cc2cc(-c3ccc(OC[C@H](O)CO)cc3F)cn2C1=O)(C(=O)NO)S(C)(=O)=O [Example 43, (R)-4-(6-(4-((R)-2,3-dihydroxypropoxy)-2-fluorophenyl)-3-oxo-1H-pyrrolo[1,2-c]imidazol-2(3H)-yl)-N-hydroxy-2-methyl-2-(methylsulfonyl)butanamide]	16 (≈ 32 µM)	8 (≈ 16 µM)	8 (≈ 16 µM)	
C[C@@](CCN1Cc2cc(C#Cc3ccc(C(F)(F)CO)cc3)cn2C1=O)(C(=O)NO)S(C)(=O)=O [Example 44, (R)-4-(6-((4-(1,1-difluoro-2-hydroxyethyl)phenyl)ethynyl)-3-oxo-1H-pyrrolo[1,2-c]imidazol-2(3H)-yl)-N-hydroxy-2-methyl-2-(methylsulfonyl)butanamide]	0.25 (≈ 0.505 µM)	1 (≈ 2.02 µM)	≤ 0.063	
C[C@@](CCN1Cc2cc(C#Cc3ccc(C(=O)CO)cc3)cn2C1=O)(C(=O)NO)S(C)(=O)=O [Example 45, (R)-N-hydroxy-4-(6-((4-(2-hydroxyacetyl)phenyl)ethynyl)-3-oxo-1H-pyrrolo[1,2-c]imidazol-2(3H)-yl)-2-methyl-2-(methylsulfonyl)butanamide]	1 (≈ 2.11 µM)	4 (≈ 8.45 µM)	0.25 (≈ 0.528 µM)	
CN(C)CC#CC#Cc1cc2n(c1)C(=O)N(CC[C@](C)(C(=O)NO)S(C)(=O)=O)C2 [Example 46, (R)-4-(6-(5-(dimethylamino)penta-1,3-diyn-1-yl)-3-oxo-1H-pyrrolo[1,2-c]imidazol-2(3H)-yl)-N-hydroxy-2-methyl-2-(methylsulfonyl)butanamide]	2 (≈ 4.76 µM)	4 (≈ 9.51 µM)	1 (≈ 2.38 µM)	
C[C@@](CCN1Cc2cc(-c3ccc(Cl)cc3F)cn2C1=O)(C(=O)NO)S(C)(=O)=O [Example 48, (R)-4-(6-(4-chloro-2-fluorophenyl)-3-oxo-1H-pyrrolo[1,2-c]imidazol-2(3H)-yl)-N-hydroxy-2-methyl-2-(methylsulfonyl)butanamide]	0.25 (≈ 0.563 µM)	1 (≈ 2.25 µM)	≤ 0.063	

Now from value to molecule, other results behind:

MIC [1, 4] [µg/mL]	MIC [2, 5] [µg/mL]	MIC [3, 6] [µg/mL]	Structure (SMILES)	further results
1 (≈ 2.38 µM)	1 (≈ 2.38 µM)	1 (≈ 2.38 µM)	CC(C)(N)C#CC#Cc1cc2n(c1)C(=O)N(CC[C@](C)(C(=O)NO)S(C)(=O)=O)C2 [Example 31, (R)-4-(6-(5-amino-5-methylhexa-1,3-diyn-1-yl)-3-oxo-1H-pyrrolo[1,2-c]imidazol-2(3H)-yl)-N-hydroxy-2-methyl-2-(methylsulfonyl)butanamide]	
0.25 (≈ 0.512 µM)	0.5 (≈ 1.02 µM)	≤ 0.063	C[C@@](CCN1Cc2cc(C#Cc3ccc(COC(N)=O)cc3)cn2C1=O)(C(=O)NO)S(C)(=O)=O [Example 32, (R)-4-((2-(4-(hydroxyamino)-3-methyl-3-(methylsulfonyl)-4-oxobutyl)-3-oxo-2,3-dihydro-1H-pyrrolo[1,2-c]imidazol-6-yl)ethynyl)benzyl carbamate]	
0.25	1	0.25	C[C@@](CCN1Cc2cc(C#CC#CC3(N)CC3)cn2C1=O)(C(=O)NO)S(C)(=O)=O.Cl [Example 38, (R)-4-(6-((1-aminocyclopropyl)buta-1,3-diyn-1-yl)-3-oxo-1H-pyrrolo[1,2-c]imidazol-2(3H)-yl)-N-hydroxy-2-methyl-2-(methylsulfonyl)butanamide hydrochloride]	
8 (≈ 17.3 µM)	4 (≈ 8.63 µM)	8 (≈ 17.3 µM)	C[C@@](CCN1Cc2cc(C#CC#CC3[C@@H](CO)[C@H]3CO)cn2C1=O)(C(=O)NO)S(C)(=O)=O (stereo partly drawn) [Example 42, (R)-4-(6-(((2R,3S)-2,3-bis(hydroxymethyl)cyclopropyl)buta-1,3-diyn-1-yl)-3-oxo-1H-pyrrolo[1,2-c]imidazol-2(3H)-yl)-N-hydroxy-2-methyl-2-(methylsulfonyl)butanamide]	
0.25 (≈ 0.535 µM)	8 (≈ 17.1 µM)	≤ 0.063	COC(=O)c1ccc(-c2cc3n(c2)C(=O)N(CC[C@](C)(C(=O)NO)S(C)(=O)=O)C3)c(F)c1 [Example 47, methyl (R)-3-fluoro-4-(2-(4-(hydroxyamino)-3-methyl-3-(methylsulfonyl)-4-oxobutyl)-3-oxo-2,3-dihydro-1H-pyrrolo[1,2-c]imidazol-6-yl)benzoate]	
